Assay results published in publication PMC7326016, “Structural Studies of Glutamate Dehydrogenase (Isoform 1) From Arabidopsis thaliana, an Important Enzyme at the Branch-Point Between Carbon and Nitrogen Metabolism” (Frontiers in Plant Science, 2020).

What was measured:
[1] = target: T1, Glutamate dehydrogenase isoform 1 (AtGDH1) (Arabidopsis thaliana, UniProt Q43314); assay: crystal structure at […] Å (one closed subunit; ligand captured from E. coli; polder map); format: binding
T1 construct: gene GDH1; full-length, 411 residues, homohexamer

[2] = target: T1, Glutamate dehydrogenase isoform 1 (AtGDH1); assay: ITC (in presence of […] 2OG) and crystal structure at […] Å; format: binding

T1 sequence (Q43314 whole entry, canonical isoform): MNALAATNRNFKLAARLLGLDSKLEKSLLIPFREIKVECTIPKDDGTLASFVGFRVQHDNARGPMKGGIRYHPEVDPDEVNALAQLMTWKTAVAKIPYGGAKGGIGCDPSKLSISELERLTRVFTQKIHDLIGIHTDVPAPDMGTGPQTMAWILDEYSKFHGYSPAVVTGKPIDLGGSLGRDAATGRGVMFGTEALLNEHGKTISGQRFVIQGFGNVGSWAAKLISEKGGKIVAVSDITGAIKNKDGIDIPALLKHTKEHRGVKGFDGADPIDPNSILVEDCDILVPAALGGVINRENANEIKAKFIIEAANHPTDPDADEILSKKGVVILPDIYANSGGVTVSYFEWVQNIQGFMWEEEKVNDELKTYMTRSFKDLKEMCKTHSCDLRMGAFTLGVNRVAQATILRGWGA

Row | Compound | crystal structure at 2.03 Å (one closed subunit); ligand captured from E. coli; p [1] | Kd [2]
1 | O=C(O)CCC(=O)C(=O)O [2-oxoglutarate] | the closed conformation subunit contains 2OG, the GDH reaction product, bound in the active site | –
2 | NC(=O)c1ccc[n+]([C@@H]2O[C@H](COP(=O)([O-])OP(=O)(O)OC[C@H]3O[C@@H](n4cnc5c(N)ncnc54)[C@H](O)[C@@H]3O)[C@@H](O)[C@H]2O)c1 [NAD^+] | – | 72 ± 6 µM
